Assay type in all cases: biochemical
The target of one experiment is T1, JAK2 (Homo sapiens, UniProt O60674).
T1 construct: made in house; host or cells: SF9 insect cells (baculovirus)
The experiment can be described thus: JAK2 inhibition (Table 4). The conditions noted are these: read-out: JAK2 Ki.

The next experiment addresses T2, JAK3 (Homo sapiens, UniProt P52333).
T2 construct: made in house; host or cells: SF9 insect cells (baculovirus)
Nature of the experiment: JAK3 inhibition (Table 4). The conditions noted are these: read-out: JAK3 Ki.

The target of the next experiment is T3, JAK1 (Homo sapiens, UniProt P23458).
T3 construct: made in house; host or cells: SF9 insect cells (baculovirus)
T3 sequence (P23458 852-1154): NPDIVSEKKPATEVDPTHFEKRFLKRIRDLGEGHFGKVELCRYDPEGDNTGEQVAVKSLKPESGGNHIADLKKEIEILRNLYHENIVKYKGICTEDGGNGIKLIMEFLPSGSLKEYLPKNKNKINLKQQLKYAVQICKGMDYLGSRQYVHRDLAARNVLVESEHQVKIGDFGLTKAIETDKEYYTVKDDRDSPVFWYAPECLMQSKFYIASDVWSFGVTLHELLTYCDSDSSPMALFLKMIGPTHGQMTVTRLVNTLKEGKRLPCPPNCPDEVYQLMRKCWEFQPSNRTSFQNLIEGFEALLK
The experiment can be described thus: JAK1 inhibition (Table 4). The conditions noted are these: read-out: JAK1 Ki.

In a further experiment the target is T4, TYK2 (Homo sapiens, UniProt P29597).
T4 construct: made in house; host or cells: SF9 insect cells (baculovirus)
T4 sequence (P29597 873-1187): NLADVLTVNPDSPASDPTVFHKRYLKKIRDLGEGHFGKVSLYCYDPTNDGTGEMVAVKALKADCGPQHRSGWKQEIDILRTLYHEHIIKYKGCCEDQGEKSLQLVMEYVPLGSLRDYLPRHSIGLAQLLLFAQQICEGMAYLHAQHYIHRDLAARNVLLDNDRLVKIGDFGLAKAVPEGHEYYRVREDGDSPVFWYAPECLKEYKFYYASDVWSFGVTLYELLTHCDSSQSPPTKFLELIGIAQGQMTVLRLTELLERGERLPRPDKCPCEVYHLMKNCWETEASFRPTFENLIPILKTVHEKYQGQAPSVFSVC
Nature of the experiment: TYK2 inhibition (Table 4).

The record followed here is patent publication US8461328B2, “Tricyclic heterocyclic compounds, compositions and methods of use thereof” (Genentech, Inc., priority 2010, dated 2013).

The structures appear in SMILES notation.

T2 sequence (P52333 783-1124): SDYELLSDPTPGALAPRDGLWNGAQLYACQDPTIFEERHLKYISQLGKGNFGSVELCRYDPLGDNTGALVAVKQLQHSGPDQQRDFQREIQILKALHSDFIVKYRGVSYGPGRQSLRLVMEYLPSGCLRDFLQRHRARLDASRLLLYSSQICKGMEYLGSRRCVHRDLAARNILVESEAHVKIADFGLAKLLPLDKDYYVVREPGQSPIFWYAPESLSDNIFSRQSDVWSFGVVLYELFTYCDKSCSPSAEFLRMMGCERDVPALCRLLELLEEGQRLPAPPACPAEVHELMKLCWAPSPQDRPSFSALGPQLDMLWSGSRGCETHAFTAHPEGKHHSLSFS
T1 sequence (O60674 812-1132): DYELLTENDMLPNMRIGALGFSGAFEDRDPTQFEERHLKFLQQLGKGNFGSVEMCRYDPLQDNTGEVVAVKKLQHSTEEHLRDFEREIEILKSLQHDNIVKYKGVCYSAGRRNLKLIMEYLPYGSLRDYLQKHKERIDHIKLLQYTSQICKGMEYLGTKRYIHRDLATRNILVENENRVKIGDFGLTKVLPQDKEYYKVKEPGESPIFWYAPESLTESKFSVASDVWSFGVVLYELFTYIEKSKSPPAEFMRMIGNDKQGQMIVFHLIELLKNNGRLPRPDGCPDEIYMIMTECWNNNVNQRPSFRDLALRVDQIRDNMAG

Usually Ki stands for the dissociation constant of the complex between target and ligand, obtained from inhibition or displacement. For `Cc1nc2cnc3[nH]ccc3c2n1C1(C)CCN(S(=O)(=O)c2cccnc2)CC1` [Example 740, 2-Methyl-1-[4-methyl-1-(pyridine-3-sulfonyl)-piperidinyl-4-yl]-1,6-dihydro-1,3,5,6-tetraaza-as-indacene], the inhibition constant Ki at JAK2 amounted to 97.7 nM; at JAK3, 404 nM; at JAK1 it was 21.7 nM; at TYK2, 296 nM.
For `Cc1nc2cnc3[nH]ccc3c2n1C1(C)CCN(C(=O)CC#N)CC1` [Example 741, 3-[4-Methyl-4-(2-methyl-6H-1,3,5,6-tetraaza-as-indacen-1-yl)-piperidin-1-yl]-3-oxo-propionitrile], the Ki is 528 nM at JAK2, 1130 nM at JAK3, 103 nM on JAK1 and 568 nM on TYK2.
The like results for `C[C@@H](O)c1nc2cnc3[nH]ccc3c2n1C1CCC(CC#N)CC1` (stereo partly drawn) [Example 743, {4-[2-((R)-1-Hydroxy-ethyl)-6H-1,3,5,6-tetraaza-as-indacen-1-yl]cyclohexyl}acetonitrile] were, in that order, 3.68 nM, 14.1 nM, 0.59 nM and 1.23 nM.
For `O=C(NC1CCC(n2cnc3cnc4[nH]ccc4c32)CC1)OCc1cccnc1` (stereo not drawn) [Example 744, [4-(6H-1,3,5,6-tetraaza-as-indacen-1-yl)-cyclohexyl]-carbamic acid pyridin-3-ylmethyl ester], the Ki on JAK2 was determined as 17.8 nM; at JAK3, 89.2 nM; on JAK1 it was 7.15 nM; on TYK2, 86 nM.
In the same order, the values of `CN(CC(F)(F)F)C(=O)NC1CCC(n2cnc3cnc4[nH]ccc4c32)CC1` (stereo not drawn) [Example 745, 1-methyl-3-[4-(6H-1,3,5,6-tetraaza-as-indacen-1-yl)-cyclohexyl]-1-(2,2,2-trifluoro-ethyl)-urea] are 11.6 nM, 37.1 nM, 3.22 nM and 113 nM.
For `O=C(NC1CCC(n2cnc3cnc4[nH]ccc4c32)CC1)N1CCC1` (stereo not drawn) [Example 746, azetidine-1-carboxylic acid [4-(6H-1,3,5,6-tetraaza-as-indacen-1-yl)-cyclohexyl]-amide], the inhibition constant Ki was determined as 21.3 nM at JAK2, 183 nM at JAK3, 13.1 nM at JAK1 and 75.4 nM at TYK2.
Take `CN(CC(F)F)C(=O)NC1CCC(n2cnc3cnc4[nH]ccc4c32)CC1` (stereo not drawn) [Example 747, 1-(2,2-difluoro-ethyl)-1-methyl-3-[4-(6H-1,3,5,6-tetraaza-as-indacen-1-yl)-cyclohexyl]-urea]: the Ki came to 11.7 nM at JAK2, 52.5 nM on JAK3, 4.22 nM on JAK1 and 72.7 nM on TYK2.
In the same order, the values of `Cc1nc2cnc3[nH]ccc3c2n1C1CCC(NC(=O)N2CC(F)(F)C2)CC1` (stereo not drawn) [Example 748, 3,3-difluoro-azetidine-1-carboxylic acid [4-(2-methyl-6H-1,3,5,6-tetraaza-as-indacen-1-yl)-cyclohexyl]-amide] are 36.6 nM, 150 nM, 10.7 nM and 444 nM.
For the compound `Cc1nc2cnc3[nH]ccc3c2n1C1CCC(NC(=O)N(C)CC(F)(F)F)CC1` (stereo not drawn) [Example 749, 1-methyl-3-[4-(2-methyl-6H 1,3,5,6-tetraaza-as-indacen-1-yl)-cyclohexyl]-1-(2,2,2-trifluoro-ethyl)-urea], the Ki at JAK2 came out at 15.8 nM; on JAK3, 8.96 nM; at JAK1, 2.83 nM; on TYK2, 177 nM.
As for `Cc1nc2cnc3[nH]ccc3c2n1C1CCC(NC(=O)N(C)CC(F)F)CC1` (stereo not drawn) [Example 750, 1-(2,2-difluoro-ethyl)-1-methyl-3-[4-(2-methyl-6H-1,3,5,6-tetraaza-as-indacen-1-yl)-cyclohexyl]-urea], the Ki on JAK2 was determined as 22.1 nM; on JAK3, 17.6 nM; at JAK1, 4.74 nM; at TYK2, 130 nM.
In the same order, the values of `CNC(=O)OC1CCC(n2c(C)nc3cnc4[nH]ccc4c32)CC1` (stereo not drawn) [Example 751, methyl-carbamic acid 4-(2-methyl-6H-1,3,5,6-tetraaza-as-indacen-1-yl)-cyclohexyl ester] are 27.9 nM, 79.4 nM, 7.83 nM and 83.9 nM.
Regarding `CC1(n2cnc3cnc4[nH]ccc4c32)CCN(S(=O)(=O)c2cccnc2)CC1` [Example 753, 1-[4-Methyl-1-(pyridine-3-sulfonyl)-piperidin-4-yl]-1,6-dihydro-1,3,5,6-tetraaza-as-indacene], the inhibitory constant (Ki) at JAK2 was 76.1 nM; at JAK3, 296 nM; at JAK1, 18.4 nM; on TYK2, 289 nM.
As for `CC1(n2cnc3cnc4[nH]ccc4c32)CCN(Cc2cccc(C#N)c2)CC1` [Example 754, 3-[4-Methyl-4-(6H-1,3,5,6-tetraaza-as-indacen-1-yl)-piperidin-1-ylmethyl]-benzonitrile], the Ki worked out at 286 nM on JAK2, 961 nM on JAK3, 40.4 nM on JAK1 and 2370 nM at TYK2.
Regarding `CC1(n2cnc3cnc4[nH]ccc4c32)CCN(Cc2cncs2)CC1` [Example 755, 1-(4-Methyl-1-thiazol-5-ylmethyl-piperidin-4-yl)-1,6-dihydro-1,3,5,6-tetraaza-as-indacene], the Ki stood at 33.7 nM on JAK2, 93.1 nM on JAK3, 7.15 nM on JAK1 and 211 nM on TYK2.
Regarding `CC1(n2cnc3cnc4[nH]ccc4c32)CCN(Cc2ccnc(C#N)c2)CC1` [Example 756, 4-[4-Methyl-4-(6H-1,3,5,6-tetraaza-as-indacen-1-yl)-piperidin-1-ylmethyl]-pyridine-2-carbonitrile], the inhibition constant (Ki) on JAK2 was 259 nM; on JAK3, 617 nM; at JAK1, 36.1 nM; at TYK2 it was 1120 nM.
The like results for `CCS(=O)(=O)N1CCC(C)(n2cnc3cnc4[nH]ccc4c32)CC1` [Example 757, 1-(1-Ethanesulfonyl-4-methyl-piperidin-4-yl)-1,6-dihydro-1,3,5,6-tetraaza-as-indacene] were, in that order, 10 nM, 82.8 nM, 2.06 nM and 33.8 nM.
On to `Cc1nc2cnc3[nH]ccc3c2n1C1(C)CCN(Cc2ccnc(C#N)c2)CC1` [Example 758, 4-[4-Methyl-4-(2-methyl-6H-1,3,5,6-tetraaza-as-indacen-1-yl)-piperidin-1-ylmethyl]-pyridine-2-carbonitrile], for which the inhibition constant Ki at JAK2 stood at 205 nM; on JAK3, 598 nM; on JAK1, 40.8 nM; at TYK2, 1010 nM.
The like results for `CC(O)c1nc2cnc3[nH]ccc3c2n1C1CCN(CCC(F)(F)F)CC1` (stereo not drawn) [Example 759, 1-{1-[1-(3,3,3-Trifluoro-propyl)-piperidin-4-yl]-1,6-dihydro-1,3,5,6-tetraaza-as-indacen-2-yl}-ethanol] were, in that order, 118 nM, 37.2 nM, 7.13 nM and 109 nM.
In the same order, the values of `OCc1nc2cnc3[nH]ccc3c2n1C1CCN(CCC(F)(F)F)CC1` [Example 760, {1-[1-(3,3,3-Trifluoro-propyl)-piperidin-4-yl]-1,6-dihydro-1,3,5,6-tetraaza-as-indacen-2-yl}-methanol] are 23 nM, 21.7 nM, 3.46 nM and 25.4 nM.
In the same order, the values of `OCc1nc2cnc3[nH]ccc3c2n1C1CCN(CC(F)(F)F)CC1` [Example 761, {1-[1-(2,2,2-Trifluoro-ethyl)-piperidin-4-yl]-1,6-dihydro-1,3,5,6-tetraaza-as-indacen-2-yl}-methanol] are 8.5 nM, 22.6 nM, 1.59 nM and 10 nM.
For the compound `Cc1nc2cnc3[nH]ccc3c2n1C1CCN(CC(F)F)CC1` [Example 762, 1-[1-(2,2-Difluoro-ethyl)-piperidin-4-yl]-2-methyl-1,6-dihydro-1,3,5,6-tetraaza-as-indacene], the inhibition constant (Ki) on JAK2 was found to be 2.65 nM; at JAK3 it was 5.51 nM; at JAK1, 0.89 nM; at TYK2, 4.88 nM.
The like results for `COCCN(C)C(=O)NC1CCC(n2cnc3cnc4[nH]ccc4c32)CC1` (stereo not drawn) [Example 763, 1-(2-Methoxy-ethyl)-1-methyl-3-[4-(6H-1,3,5,6-tetraaza-as-indacen-1-yl)-cyclohexyl]-urea] were, in that order, 42.2 nM, 278 nM, 12.5 nM and 223 nM.
In the same order, the values of `Cc1nc2cnc3[nH]ccc3c2n1C1CCN(C(=O)NCC(F)(F)F)CC1` [Example 764, 4-(2-Methyl-6H-1,3,5,6-tetraaza-as-indacen-1-yl)-piperidine-1-carboxylic acid (2,2,2-trifluoro-ethyl)-amide] are 441 nM, 609 nM, 88.1 nM and 859 nM.
With `Cc1nc2cnc3[nH]ccc3c2n1C1CCN(C(=O)NCCC(F)(F)F)CC1` [Example 765, 4-(2-Methyl-6H-1,3,5,6-tetraaza-as-indacen-1-yl)-piperidine-1-carboxylic acid (3,3,3-trifluoro-propyl)-amide], the Ki on JAK2 worked out at 872 nM; at JAK3 it was 2210 nM; at JAK1, 275 nM; on TYK2, 2840 nM.
